Test results as given in patent US11142548B2, “Agents that activate CD47 and their use in the treatment of inflammation” (SORBONNE UNIVERSITE, priority 2016, dated 2021).
Non-standard residues stand in square brackets, D forms with d. Residues, ends and D or L forms follow the SMILES beside them. NMeR = CN[C@@H](CCCNC(=N)N)C(=O)O; Nle = CCCC[C@H](N)C(=O)O

Experiments:
porcine RPE = assay: Monocyte/RPE co-culture, RPE cell number (OTX2+ nuclei); format: cell-based; conditions: for number/survival of RPE cells in co-culture: HTRA1 5 μg/mL, OTX2 nuclear marker
Experimental: (§1) Fresh pig eyes were obtained from the slaughter house 2-3 hours after enucleation. They were cleaned of surrounding tissue and immersed briefly in antiseptic solution (Pursept®). The anterior part of the eye was removed, as the lens, vitreous and vitreous. The posterior segments were washed 2 times with PBS (Phosphate Buffered Saline) and then incubated at 37° C. in the presence of 0.25% trypsin, to detach the RPE cells. After 1 h incubation, the trypsin solution was removed and the cells recovered in Dulbecco's Modified Eagle's Medium (DMEM) supplemented with 20% fetal calf serum (FCS) decomplemented and in the presence of antibiotics (1% penicillin/Streptomycin). The cells were washed several times and then incubated at 37° C. in culture dishes. Three days after the culturing, these cells were again incubated with by 0.25% trypsin, washed, and seeded into 48 wells culture plates (Grenier®) at a density of 150,000 cells/culture well (300,000 cells/[…] or 500 μL/well). Cell confluence was obtained after 4 days of incubation at 37° C. with optimum cell characteristics (squamous cells, well pigmented). To avoid the aging of these primary cell cultures, all the experiments were conducted between the 5th and 7th day after seeding the culture plates.
The culture medium of RPE cells was changed the day before the co-culture with DMEM without FCS (DMEM+1% Penicillin/Streptomycin only). Monocytes were plated onto the wells in the presence or absence of RPE cells at a concentration of 200,000 cells/culture well in a 48-well plate. […]
25 fields per well were analyzed Arrayscan® then the number of cells for each culture condition was counted directly by a computer protocol. […] For graphs where quantifications from several plates were pooled (FIGS. 4D and E) results were expressed as the percentage of the number of PU.1 or OTX2 positive cells normalized with the HTRA1 treated condition. […]

human monocytes = assay: Monocyte/RPE co-culture, monocyte number; format: cell-based; conditions: for number of PU1+ Mos, dose response: HTRA1-activated co-cultures, dose dependently
Excerpt: In accordance with the Declaration of Helsinki, volunteers provided written and informed consent for the human monocyte expression studies, which were approved by the Centre national d'ophthalmologic des Quinze-Vinet hospital (Paris, France) ethics committees (no. 913572). PBMCs were isolated from heparinized venous blood from healthy volunteer individuals by 1-step centrifugation on a Ficoll Paque layer (GE Healthcare) and sorted with EasySep Human Monocyte Enrichment Cocktail without CD16 Depletion Kit (StemCells Technology). Mouse peritoneal macrophages, bone marrow-derived monocytes and photoreceptor outer segment (POS) isolation (all in serum-free X-Vivo 15 medium) were performed as previously described (Sennlaub et al, EMBO Mol Med. 2013, 5:1775-1793). For co-culture experiments the mononuclear monocytes were either stained using CellTrace™ CFSE (Life Technologies®) and then washed three times or they were identified by PU1 immunohistochemistry, a MP-specific transcription factor not expressed in RPE.
as §1
The culture medium of RPE cells was changed the day before the co-culture with DMEM without FCS (DMEM+1% Penicillin/Streptomycin only). Monocytes were plated onto the wells in the presence or absence of RPE cells at a concentration of 200,000 cells/culture well in a 48-well plate.
Part of co-culture well was brought into contact with 1 ng/ml of Lipopolysaccharide (LPS) from E. coli or recombinant HTRA1 (R & D, 5 μg/ml), to simulate a systemic inflammatory activation (LPS) or microenvironment similar to AMD (increase HTRA1) (see above). […]
RPE cells were permeabilized, after washing PAF 4%, with a solution of PBS-0.1% Triton-Citrate 0.1%. Nonspecific immunogenic sites were blocked with PBS-0.1% Triton-5% horse serum. After 1 hour, the blocking solution was removed and the cells were placed in presence of the with the primary antibodies (polyclonal rabbit anti-human PU.1, 1/200, LifeTechnologies; polyclonal goat anti-human OTX2, 1/500, R&D) diluted in PBS triton 0.1% and 1% horse serum and incubated at 4° C. for 12 h. After three washes with PBS, the secondary antibody coupled to a fluorochrome and diluted in PBS-0.1% Triton-1% horse serum was added along with DAPI (nuclear staining) and left for 1 hour at temperature ambient and then washed several times with PBS.
25 fields per well were analyzed Arrayscan® then the number of cells for each culture condition was counted directly by a computer protocol. All nuclei were labeled with DAPI, monocytes were marked in green 488 nm (CellTrace™ CFSE) or and RPE cells in far red 647 nm (recognition of anti-OTX2 primary antibody). […]

subretinal IBA-1+ MPs = assay: Laser-injury model in Cx3cr1GFP/GFP mice; format: in vivo, mouse; conditions: 2 μl intravitreal at day 4 and day 7, day 10, vs PBS or 4NGG
Experimental: (§2) Laser-coagulations were performed with a 532 nm ophtalmological laser mounted on an operating microscope (Vitra Laser, 532 nm, 450 mW, 50 ms, and 250 μm): Intravitreal injections of 2 μl of HTRA1 and/or TSP1 were performed using glass capillaries (Eppendorf) and a micro injector. The 2 μl injection solution contained 50 μg/ml TSP1 and HTRA1, corresponding to an intraocular concentration of 5 μg/ml of each protein assuming their dilution by approximately 1/10th in the intra-ocular volume. […] A volume of 2 μl of a 100 μM solution of either PBS, recombinant TSP1 (10 μg/ml), the 4NGG control peptide or the CD47-activating peptide PKT16 (200 μM) was injected at day 4 (when MP infiltration is maximal) and day 7 after the injury and evaluated subretinal inflammation on flatmounted RPE/choroidal flatmounts at day 10.
(§3) Eyes were enucleated, fixed in 4% PFA 30 minutes and sectioned at the limbus; the cornea and lens were discarded. […] Choroids and retinas were flatmounted and viewed with a fluorescence microscope DM5500B (Leica). IBA-1+ cells were counted on whole RPE/choroidal flatmounts and on the outer segment side of the retina. […]

[1] = test system: subretinal IBA-1+ mononuclear monocytes; assay: Laser-induced subretinal inflammation in wildtype- and Tsp1-/- mice; format: in vivo, mouse; conditions: wildtype mice, intravitreal injection at d3, quantification at d7
Experimental: as §2, §3

HTRA1 = biological target: T1, HTRA1 (Homo sapiens, UniProt Q92743); assay: Co-incubation of recombinant TSP1 or TSP2 with recombinant HTRA1 (Coomassie staining, Western blot); format: biochemical; conditions: co-incubation at 37° C. for 24 h, Coomassie gel
T1 construct: purchased R & D
T1 sequence (Q92743 23-480): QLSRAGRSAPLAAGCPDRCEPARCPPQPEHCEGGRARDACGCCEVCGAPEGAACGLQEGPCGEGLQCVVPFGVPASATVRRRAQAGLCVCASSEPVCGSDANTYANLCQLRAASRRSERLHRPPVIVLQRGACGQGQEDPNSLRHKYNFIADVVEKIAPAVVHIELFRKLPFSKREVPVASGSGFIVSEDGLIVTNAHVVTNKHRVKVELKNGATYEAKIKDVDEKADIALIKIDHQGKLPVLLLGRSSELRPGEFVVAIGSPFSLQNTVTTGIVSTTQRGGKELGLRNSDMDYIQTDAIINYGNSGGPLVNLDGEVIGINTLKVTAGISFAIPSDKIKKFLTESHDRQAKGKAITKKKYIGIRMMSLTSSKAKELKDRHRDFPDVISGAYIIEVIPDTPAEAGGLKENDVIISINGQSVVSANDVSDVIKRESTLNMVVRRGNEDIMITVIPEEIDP
Experimental: WB analysis was performed using a monoclonal anti-TSP1 antibody (Abeam), as previously described (Houssier et al., PLoS Med. 2008, 5:e39). RT-PCRs primers were ordered from Taqman, reference: Hs01016151_m1.
Western blot analysis of the proteins confirmed the disappearance of the whole sized TSP1 and the appearance of several smaller bands in the co-incubated condition (FIG. 3A). […] Next the functionality of rTSP1 and HTRA1-digested TSP1 was analyzed in laser-induced subretinal inflammation in vivo. […] Accordingly, associated choroidal neovascularization, measured as the surface covered by CD102^−CNV on choroidal flatmounts at d7, underwent the same differences (FIG. 3D).

[2] = test system: recruited monocyte-derived inflammatory macrophages (recMφ); assay: Thioglycollate-induced peritonitis; format: in vivo, mouse; conditions: single intra-peritoneal injection at day 1, observed at day 2
Experimental: Mouse peritoneal exudate cells (PECs) were elicited by i.p. injection of 0,5 ml 3% thioglycollate (T9032, Sigma) into 10 weeks old male C57BL/6J and Cd47^−/− mice. After 1 day, PECs were isolated by flushing of the peritoneum with ice-cold PBS, Mφs were negatively selected by magnetic sorting following the manufacturers protocol (EasySep Mouse Monocyte Enrichment Kit, Stemcell Technologies), resuspended in X-VIVO 15 medium (Lonza), and plated in Lab-Tek® Chamber Slide™ (Nunc®).
To test whether CD47 influences inflammation resolution in other pathological contexts, a model of acute thioglycollate-induced peritonitis was used, characterized by an early accumulation of neutrophils, followed by recruited monocyte-derived inflammatory macrophages (recMφ), both experiencing an apoptosis-driven elimination at different kinetics (Gautier et al., Blood. 2013, 122:2714-2722).

With `CCCC[C@H](NC(=O)[C@@H](NC(=O)[C@@H](NC(=O)[C@H](Cc1ccc(O)cc1)NC(=O)[C@H](Cc1ccccc1)NC(=O)[C@H](CCCNC(=N)N)N(C)C(=O)[C@H](N)CCCCN)C(C)C)C(C)C)C(=O)N[C@@H](Cc1c[nH]c2ccccc12)C(=O)N[C@@H](CCCCN)C(=O)N[C@H](CCCCN)C(=O)O` [PKT16, (D)K-(NMeR)-F-Y-V-V-Nle-W-K-(D)K] (H-[dK][NMeR]FYVV[Nle]WK[dK]-OH) as the compound, how does the “toxicity to RPE cells (number of OTX2+ nuclei)” value (porcine RPE; HTRA1 treated co-culture with peptide) read?
The value was “No toxicity”.

What about the “number of PU1+ Mos, dose response” value (human monocytes; 48 h) of the same compound?
Its value is “diminished the number of Mos”.

What about the “CFSE+ monocytes number in HTRA1 treated co-culture” value (human monocytes; peptide 100 μM added directly, HTRA1 5 μg/mL, 24 h) of the same compound?
Its value is “completely reversed”.

What about the “elimination of subretinal IBA-1+ MPs adjacent to the laser impact” value (subretinal IBA-1+ MPs) of the same compound?
The value was “eliminated significantly more efficiently”.

With “rHTRA1: recombinant HTRA1 (R & D), high-temperature requirement A serine peptidase 1” as the compound, how does the “number/survival of RPE cells in co-culture” value (porcine RPE; listed as HTRA1) read?
The value was “did not influence survival”.

What about the “number/survival of RPE cells in co-culture” value (porcine RPE; listed as Recombinant HTRA1) of the same compound?
Its value is “did not diminish significantly”.

And the “monocytes survival in co-culture” value (human monocytes; HTRA1 5 μg/mL)?
Its value is “significantly increased”.

What about the “hMos number relative to control conditions” value (human monocytes; HTRA1 5 μg/mL added to co-culture, 24 h) of the same compound?
Its value is 3 to 4 times.

What about the “effect of HTRA1 on Mo number after heat-inactivation” value (human monocytes; heat-inactivated HTRA1 (not shown)) of the same compound?
The value was “abolished its effect”.

And the “laser-induced subretinal inflammation in wildtype mice” value [1]?
Its value is “aggravates”.

With “4N1K-GGGGGGGG-4N1K (KRFYVVMWKKGGGGGGGGKRFYVVMWKK) [d4N1K]” as the compound, how does the “Mo elimination compared with 4N1K” value (human monocytes; HTRA1-activated co-cultures, 0, 4, 20 and 50 μM, 48 h) read?
Its value is “significantly more effective”.

How did the “degradation by recombinant HTRA1” value (HTRA1) turn out when “recombinant TSP2: recombinant TSP2, contains one VVM site, resistant to HTRA1” was run?
The value was “no such degradation”.

Which “number of PU1+ Mos, dose response” value (human monocytes; 48 h) does the source give for “KRFYVVMWKK (4N1K peptide) [reference compound]” here?
The value was “diminished the number of Mos”.

How did the “elimination of recMφs” value [2] turn out when `CSCC[C@H](NC(=O)[C@@H](NC(=O)[C@@H](NC(=O)[C@H](Cc1ccc(O)cc1)NC(=O)[C@H](Cc1ccccc1)NC(=O)[C@H](CCCNC(=N)N)NC(=O)[C@H](N)CCCCN)C(C)C)C(C)C)C(=O)N[C@@H](Cc1c[nH]c2ccccc12)C(=O)N[C@@H](CCCCN)C(=O)N[C@H](CCCCN)C(=O)O` [PKHB1, (D)K-R-F-Y-V-V-M-W-K-(D)K] was run?
Its value is “significantly accelerated the elimination”.
